US10047084B2, “Imidazolone derivatives, pharmaceutical compositions and uses thereof” (BEIJING FORELANDPHARMA CO. LTD., priority 2013, dated 2018)

How the values were obtained:
mTOR kinase = mTOR kinase (Homo sapiens (Human), UniProt P42345); test: mTOR kinase activity assay (TR-FRET, GFP-4EBP1 substrate); type: biochemical; conditions: read-out: Enzyme (mTOR) IC50
Protocol: 1. mTOR Kinase Activity Assay: The inhibition of the mTOR protein kinase activity by the compounds was determined by the enzymatic activity assay in vitro. The detection kit supplied by Invitrogen was used to detect the inhibition of the activity of the mTOR […]. The principle of the assay was as follows: mTOR kinase, fluorescein-labeled substrate and ATP were mixed, and after the reaction, EDTA and terbium-labeled first antibody were added. During the chemical reaction process of the mTOR kinase, the antibody recognized the phosphorylated and fluorescein-labeled substrate, and then the “time-resolved fluorescence resonance energy transfer” (TR-FRET) effect was enhanced. TR-FRET effect was calculated as the ratio of signals from the acceptor fluorescein to signals from the donor terbium. The amount of the antibody bound to the tracer was directly proportional to the amount of the phosphorylated substrate after the reaction. In this way, the kinase activity can be detected. In this assay, the substrate of the mTOR kinase was green fluorescent protein-coupled 4E binding protein 1 (GFP-4EBP1).
1.1 Materials and Instruments:
4-Hydroxyethylpiperazine ethanesulfonic acid (HEPES, Sigma, Cat# SH3375), ethylene glycol-bis-(2-aminoethylether)-tetraacetic acid (EGTA, Sigma, Cat# E3889), manganese chloride (MnCl2, Sigma, Cat# M1787), Tween-20 (Tween-20, Amresco), 1,4-dithiothreitol (DTT, Merck, CB233155),

PC-3 = test: CTG cell survival assay, PC-3; type: cell-based; conditions: Homo sapiens, PC-3 cells
Source text: (§1) 2. CTG Cell Survival Assay:
(§2) ATP is necessarily produced during the metabolic activities of viable cells, and there is a linear relationship between the content of ATP and the number of viable cells. Cell viability assay by CTG chemiluminescence is a general method for detecting the number of viable cells in the culture cells based on this principle. The addition of the CellTiter-Glo (CTG) reagent may induce cell lysis and produce chemiluminescent signals directly proportional to the amount of ATP in the well-plate, and thereby the cell proliferation activity in the well-plate can be measured by the reading values from the chemiluminescence.
(§3) 2.1 Experimental Materials and Instruments:
(§4) 2.4 Experimental Procedure: • 1.4.1 Cell Thawing: Cryogenic vials were removed from the liquid nitrogen container, directly immersed in a water bath at 37° C., and shaked from time to time to thaw. The cryogenic vials were removed from the water bath at 37° C., and transferred to the biosafe cabinet. Their lids were opened, and the cell suspensions were aspirated with pipettes, added to centrifuge tubes, and then added with more than 10 volumes of culture solution, mixed well; centrifuged for 5 min at 1000 rpm; the supernatant was discarded, and medium containing cell growth was added to resuspend cells. All cell suspensions were seeded to the T25 culture flasks and static cultured in an incubator at 37° C.; the culture solution were changed once on the next day, and continued to be cultured. • 2.4.2 Cell Passaging: After cells were grown to logarithmic phase and were 80%-90% confluent, cells were removed and placed in the biosafe cabinet, the old culture solution was discarded, and the cells were wetted and washed with PBS once or twice. An appropriate amount of 0.25% Trypsin-EDTA solution was added to the culture flasks. The flasks were placed in the carbon dioxide incubator at 37° C. for 2-5 min. An appropriate amount of cell growth medium containing 10% PBS was added to terminate the digestion, lightly swished, and transferred to the centrifuge tubes and centrifuged for 5 min at 1000 rpm. The cells were prepare (into cell suspensions for passaging and experimental use. • 2.4.3 Cell Plating • 2.4.3.1 A cell suspension was prepared: After cells were grown to logarithmic phase and were 80%-90% confluent, the cells were removed to the biosafe cabinet, and the old culture solution was discarded, then the cells were wetted and washed with PBS once or twice. An appropriate amount of 0.25% Trypsin-EDTA solution was added to the culture flask. The flask was placed in a carbon dioxide incubator at 37° C. for 2-5 min. An appropriate amount of the cell growth medium containing 10% PBS was added to terminate digestion, and was lightly swished. The solution was transferred to a centrifuge tube, centrifuged for 5 min at 1000 rpm, and counted. […] Secondly, 20 uM of the compound to be tested was diluted with the cell growth medium containing 0.2% DMSO in 3-fold dilution to obtain 9 concentrations, and there were 10 concentration gradients in total. • 2.4.4.3 Addition of the compounds to be tested: the prepared gradient dilution solutions of compounds to be tested were taken and added to the cell culture plate at 100 ul/well; at this point, the maximum concentration of compounds to be tested was 10 uM, and the concentration of DMSO was 0.1%.

SK-BR3/BT474 = test: CTG cell survival assay, SK-BR3/BT474; type: cell-based; conditions: SK-BR3/BT474 cells
Source text: as §1, §2, §3, §4

MV-4-11 = test: CTG cell survival assay, MV-4-11; type: cell-based; conditions: Homo sapiens, MV4-11, MV-4-11 cells
Source text: as §1, §2, §3
2.1.1 Experimental Materials: compounds to be tested, cell basal culture medium, RPMI Medium 1640 (Invitrogen, Cat#11875-093), fetal calf serum (FBS): Hyclone FETAL BOVINE SERUM DEFINED (Invitrogen, Cat#SH30070.03), antibiotics: Penicilin Streptomycin (Invitrogen, Cat#15140-122), phosphate buffer (Corning Cellgro, Cat#R21-040-CV), cell digestive solution: 0.25% Trypsin-EDTA (Invitrogen, Cat#25200-056), CTG detection kit: Promega, Cat#G7571, flat-bottom 96-well black bottom plate: NUNC, Cat#165305, T25 culture flask: NUNC, Cat#156367, T75 culture flask: NUNC, Cat#156439
2.2 Experimental Instruments: Carbon Dioxide Incubator, SANYO-MCO-20AIC, Biosafe Cabinet: BSC-1360-LIIA2, Table-Top High-Speed Refrigerated Centrifuge: SorvallST 16R, Microplate Rapid Oscillator: QB-9001, M3 Reader: SpectraMax M3, Microscope: OLYMPUS-CKX41/CKX31.
2.3 Preparation of Solutions and Reagents: Formulation of cell growth medium: RPMI Medium 1640+10% FBS+antibiotics, others: trypsin digestive solution, phosphate buffer (PBS), DMSO, CTG detection kit.
2.4 Experimental Procedure: • 1.4.1 Cell Thawing: Cryogenic vials were removed from the liquid nitrogen container, directly immersed in a water bath at 37° C., and shaked from time to time to thaw. The cryogenic vials were removed from the water bath at 37° C., and transferred to the biosafe cabinet. Their lids were opened, and the cell suspensions were aspirated with pipettes, added to centrifuge tubes, and then added with more than 10 volumes of culture solution, mixed well; centrifuged for 5 min at 1000 rpm; the supernatant was discarded, and medium containing cell growth was added to resuspend cells. All cell suspensions were seeded to the T25 culture flasks and static cultured in an incubator at 37° C.; the culture solution were changed once on the next day, and continued to be cultured. • 2.4.2 Cell Passaging: After cells were grown to logarithmic phase and were 80%-90% confluent, cells were removed and placed in the biosafe cabinet, the old culture solution was discarded, and the cells were wetted and washed with PBS once or twice. An appropriate amount of 0.25% Trypsin-EDTA solution was added to the culture flasks. The flasks were placed in the carbon dioxide incubator at 37° C. for 2-5 min. An appropriate amount of cell growth medium containing 10% PBS was added to terminate the digestion, lightly swished, and transferred to the centrifuge tubes and centrifuged for 5 min at 1000 rpm. The cells were prepare (into cell suspensions for passaging and experimental use. • 2.4.3 Cell Plating • 2.4.3.1 A cell suspension was prepared: After cells were grown to logarithmic phase and were 80%-90% confluent, the cells were removed to the biosafe cabinet, and the old culture solution was discarded, then the cells were wetted and washed with PBS once or twice. An appropriate amount of 0.25% Trypsin-EDTA solution was added to the culture flask. The flask was placed in a carbon dioxide incubator at 37° C. for 2-5 min. An appropriate amount of the cell growth medium containing 10% PBS was added to terminate digestion, and was lightly swished. The solution was transferred to a centrifuge tube, centrifuged for 5 min at 1000 rpm, and counted. […]

Chain of mTOR kinase (P42345 1360-2549): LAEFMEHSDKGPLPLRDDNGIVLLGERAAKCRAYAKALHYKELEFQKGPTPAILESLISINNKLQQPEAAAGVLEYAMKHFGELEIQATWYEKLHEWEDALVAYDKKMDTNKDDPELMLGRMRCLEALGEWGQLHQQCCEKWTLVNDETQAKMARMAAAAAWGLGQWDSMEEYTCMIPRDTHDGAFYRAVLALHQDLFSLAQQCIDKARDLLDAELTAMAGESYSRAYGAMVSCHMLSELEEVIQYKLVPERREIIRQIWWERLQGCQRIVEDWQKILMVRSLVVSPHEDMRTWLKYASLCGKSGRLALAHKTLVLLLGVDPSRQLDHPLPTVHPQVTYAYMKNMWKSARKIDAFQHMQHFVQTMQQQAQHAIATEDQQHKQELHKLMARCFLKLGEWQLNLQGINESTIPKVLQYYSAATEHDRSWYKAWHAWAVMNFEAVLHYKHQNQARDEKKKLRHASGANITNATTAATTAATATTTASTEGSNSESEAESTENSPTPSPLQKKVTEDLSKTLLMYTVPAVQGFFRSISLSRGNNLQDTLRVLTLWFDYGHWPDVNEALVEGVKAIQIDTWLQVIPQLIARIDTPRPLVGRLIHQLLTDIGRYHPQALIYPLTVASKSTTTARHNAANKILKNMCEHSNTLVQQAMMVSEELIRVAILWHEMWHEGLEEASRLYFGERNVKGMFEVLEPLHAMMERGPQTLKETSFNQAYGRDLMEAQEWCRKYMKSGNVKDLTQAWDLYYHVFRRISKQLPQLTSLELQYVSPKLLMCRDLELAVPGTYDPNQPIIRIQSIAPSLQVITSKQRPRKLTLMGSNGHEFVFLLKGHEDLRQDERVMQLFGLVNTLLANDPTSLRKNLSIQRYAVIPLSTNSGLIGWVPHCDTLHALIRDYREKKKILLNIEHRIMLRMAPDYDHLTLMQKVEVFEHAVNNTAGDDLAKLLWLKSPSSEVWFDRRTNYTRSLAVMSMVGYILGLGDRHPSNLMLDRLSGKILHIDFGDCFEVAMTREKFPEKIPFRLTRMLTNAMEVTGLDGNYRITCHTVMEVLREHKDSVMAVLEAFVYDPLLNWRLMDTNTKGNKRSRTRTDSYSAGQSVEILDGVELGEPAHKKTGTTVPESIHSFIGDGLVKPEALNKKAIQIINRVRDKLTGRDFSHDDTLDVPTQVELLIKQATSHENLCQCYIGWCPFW

Cn1cc(-c2ccc(-c3ccc4ncc5c(c4c3)n(C3CCN(C(=O)CO)C3)c(=O)n5C)cn2)cn1 (stereo not shown) [Example 7, 1-(1-(2-hydroxyacetyl)pyrrolidin-3-yl)-3-methyl-8-(6-(1-methyl-1H-pyrazol-4-yl)pyridin-3-yl)-1H-imidazo[4,5-c]quinolin-2(3H)-one]
IC50 (mTOR kinase): 100 to 1000 nM
EC50 (PC-3): < 1000 nM
EC50 (SK-BR3/BT474): < 1000 nM

CC(=O)N1CCC(n2c(=O)n(C)c3cnc4ccc(-c5ccc(-c6cnn(C)c6)nc5)cc4c32)C1 (stereo not shown) [Example 11, 1-(1-acetylpyrrolidin-3-yl)-3-methyl-8-(6-(1-methyl-1H-pyrazol-4-yl)pyridin-3-yl)-1H-imidazo[4,5-c]quinolin-2(3H)-one]
IC50 (mTOR kinase): 100 to 1000 nM
EC50 (PC-3): < 1000 nM
EC50 (SK-BR3/BT474): < 1000 nM

Cn1cc(-c2ccc(-c3ccc4ncc5c(c4c3)n(C3CCN(S(=O)(=O)c4ccc(Cl)cc4)C3)c(=O)n5C)cn2)cn1 (stereo not shown) [Example 13, 1-(1-((4-chlorphenyl)sulfonyl)pyrrolidin-3-yl)-3-methyl-8-(6-(1-methyl-1H-pyrazol-4-yl)pyridin-3-yl)-1H-imidazo[4,5-c]quinolin-2(3H)-one]
IC50 (mTOR kinase): 100 to 1000 nM
EC50 (PC-3): < 1000 nM
EC50 (SK-BR3/BT474): < 500 nM

Cc1ccc(S(=O)(=O)N2CCC(n3c(=O)n(C)c4cnc5ccc(-c6ccc(-c7cnn(C)c7)nc6)cc5c43)C2)cc1 (stereo not shown) [Example 14, 3-methyl-8-(6-(1-methyl-1H-pyrazol-4-yl)pyridin-3-yl)-1-(1-p-toluenesulfonylpyrrolidin-3-yl)-1H-imidazo[4,5-c]quinolin-2(3H)-one]
IC50 (mTOR kinase): 100 to 1000 nM
EC50 (PC-3): < 1000 nM
EC50 (SK-BR3/BT474): < 200 nM

Cn1cc(-c2ccc(-c3ccc4ncc5c(c4c3)n(C3CCN(S(N)(=O)=O)C3)c(=O)n5C)cn2)cn1 (stereo not shown) [Example 15, 3-(3-methyl-8-(6-(1-methyl-1H-pyrazol-4-yl)pyridin-3-yl)-2-oxo-2,3-dihydro-1H-imidazo[4,5-c]quinolin-1-yl)pyrrolidine-1-sulfamide]
IC50 (mTOR kinase): 100 to 1000 nM
EC50 (PC-3): < 500 nM
EC50 (SK-BR3/BT474): < 1000 nM

Cn1c(=O)n([C@H]2CC[C@@H](O)CC2)c2c3cc(-c4ccc(N)nc4)ccc3ncc21 [Example 26, 8-(6-aminopyridin-3-yl)1-((1s,4s)-4-hydroxycyclohexyl)-3-methyl-1H-imidazo[4,5-c]quinolin-2(3H)-one]
IC50 (mTOR kinase): < 10 nM
EC50 (MV-4-11): < 50 nM
EC50 (SK-BR3/BT474): < 200 nM

CCS(=O)(=O)N1CC[C@H](n2c(=O)n(C)c3cnc4ccc(-c5ccc(-c6cnn(C)c6)nc5)cc4c32)C1 [Example 29, (S)-1-(1-(ethylsulfonyl)pyrrolidin-3-yl)-3-methyl-8-(6-(1-methyl-1H-pyrazol-4-yl)pyridin-3-yl)-1H-imidazo[4,5-c]quinolin-2(3H)-one]
IC50 (mTOR kinase): < 10 nM
EC50 (MV-4-11): < 100 nM
EC50 (SK-BR3/BT474): < 100 nM

Cn1c(=O)n([C@H]2CCN(S(C)(=O)=O)C2)c2c3cc(-c4ccc(-c5ccccc5)nc4)ccc3ncc21 [Example 30, (S)-3-methyl-1-(1-(methanesulfonyl)pyrrolidin-3-yl)-8-(6-phenylpyridin-3-yl)-1H-imidazo[4,5-c]quinolin-2(3H)-one]
IC50 (mTOR kinase): < 10 nM
EC50 (MV-4-11): < 100 nM
EC50 (SK-BR3/BT474): < 100 nM

[2H]C([2H])([2H])n1c(=O)n(C2CCCN(S(C)(=O)=O)C2)c2c3cc(-c4ccc(-c5cnn(C)c5)nc4)ccc3ncc21 (stereo not shown) [Example 36, 3-deuteromethyl-8-(6-(1-methyl-1H-pyrazol-4-yl)pyridin-3-yl)-1-(1-(methanesulfonyl)piperidin-3-yl)-1H-imidazo[4,5-c]quinolin-2(3H)-one]
IC50 (mTOR kinase): < 10 nM
EC50 (MV-4-11): < 200 nM
EC50 (SK-BR3/BT474): < 500 nM

Cn1cc(-c2ccc(-c3ccc4ncc5c(c4n3)n(C3CCCN(S(C)(=O)=O)C3)c(=O)n5C)cn2)cn1 (stereo not shown) [Example 37, 3-methyl-8-(6-(1-methyl-1H-pyrazol-4-yl)pyridin-3-yl)-1-(1-(methanesulfonyl)piperidin-3-yl)-1H-imidazo[4,5-c][1,5]naphthyridin-2(3H)-one]
IC50 (mTOR kinase): < 10 nM
EC50 (MV-4-11): < 50 nM
EC50 (SK-BR3/BT474): < 50 nM

Cn1cc(-c2ccc(-c3ccc4ncc5c(c4n3)n([C@H]3CCN(S(C)(=O)=O)C3)c(=O)n5C)cn2)cn1 [Example 38, (S)-3-methyl-8-(6-(1-methyl-1H-pyrazol-4-yl)pyridin-3-yl)-1-(1-(methanesulfonyl)pyrrolidin-3-yl)-1H-imidazol-[4,5-c][1,5]naphthyridin-2(3H)-one]
IC50 (mTOR kinase): < 10 nM
EC50 (PC-3): 21 nM

Cn1c(=O)n([C@H]2CCN(S(C)(=O)=O)C2)c2c3nc(-c4ccc(-c5ccccc5)nc4)ccc3ncc21 [Example 39, (S)-3-methyl-1-(1-(methanesulfonyl)pyrrolidin-3-yl)-8-(6-phenylpyridin-3-yl)-1H-imidazo[4,5-c][1,5]naphthyridin-2(3H)-one]
IC50 (mTOR kinase): < 10 nM
EC50 (PC-3): 37 nM
